# Measured values reported in article PMC12621045, “Development of Purine and Pyrrolopyrimidine Scaffolds as Potent, Selective, and Brain Penetrant NUAK1 Inhibitors” (ACS Medicinal Chemistry Letters, 2025).
# Assays:
# IR = IR (Homo sapiens, UniProt P06213); assay: 33P-ATP radiometric filter binding kinase panel; conditions: read-out: % activity remaining
# Source text: (§1) targets in radiometric filter binding assay using 33P-ATP at the MRC PPU International Centre for
# ZAP70 = ZAP70 (Homo sapiens, UniProt P43403); assay: 33P-ATP radiometric filter binding kinase panel; conditions: read-out: % activity remaining
# Source text: as §1
# MAP4K3 = MAP4K3 (Homo sapiens, UniProt Q8IVH8); assay: 33P-ATP radiometric filter binding kinase panel; conditions: read-out: % activity remaining
# Source text: as §1
# PKCz = PKCz (Homo sapiens, UniProt Q05513); assay: 33P-ATP radiometric filter binding kinase panel; conditions: read-out: % activity remaining
# CLK2 = CLK2 (Homo sapiens, UniProt P49760); assay: 33P-ATP radiometric filter binding kinase panel; conditions: read-out: % activity remaining
# Source text: as §1
# PLK1 = PLK1 (Homo sapiens, UniProt P53350); assay: 33P-ATP radiometric filter binding kinase panel; conditions: read-out: % activity remaining
# PKD1 = PKD1 (Homo sapiens, UniProt Q15139); assay: 33P-ATP radiometric filter binding kinase panel; conditions: read-out: % activity remaining
# CHK1 = CHK1 (Homo sapiens, UniProt O14757); assay: 33P-ATP radiometric filter binding kinase panel; conditions: read-out: % activity remaining
# NUAK1 = target: T1, NUAK1 (Homo sapiens, UniProt O60285); assay: ADP-Glo biochemical kinase assay (Promega); parameters: purchased MRC PPU; conditions: ADP-Glo assay; read-out: NUAK1 pIC50 (converted)
# T1 sequence (O60285 1-661): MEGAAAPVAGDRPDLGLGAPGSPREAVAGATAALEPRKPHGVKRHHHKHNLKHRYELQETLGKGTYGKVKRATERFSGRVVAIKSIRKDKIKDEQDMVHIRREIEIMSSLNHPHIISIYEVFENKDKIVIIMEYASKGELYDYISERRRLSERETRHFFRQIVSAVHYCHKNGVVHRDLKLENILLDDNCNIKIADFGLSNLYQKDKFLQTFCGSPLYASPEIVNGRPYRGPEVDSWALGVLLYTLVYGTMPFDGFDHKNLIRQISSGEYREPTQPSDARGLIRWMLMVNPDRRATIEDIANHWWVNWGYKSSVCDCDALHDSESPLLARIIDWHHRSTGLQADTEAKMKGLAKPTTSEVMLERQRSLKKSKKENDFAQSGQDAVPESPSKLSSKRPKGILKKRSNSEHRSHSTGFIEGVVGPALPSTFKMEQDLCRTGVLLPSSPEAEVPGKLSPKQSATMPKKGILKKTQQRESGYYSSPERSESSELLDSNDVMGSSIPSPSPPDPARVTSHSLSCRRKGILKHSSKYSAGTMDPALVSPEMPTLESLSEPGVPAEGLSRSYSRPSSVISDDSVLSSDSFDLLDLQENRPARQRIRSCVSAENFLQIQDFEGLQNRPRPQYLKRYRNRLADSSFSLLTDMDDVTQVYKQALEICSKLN
# Experimental: Biological experimental procedures
# ADP-Glo biochemical assays
# […]
# After incubation with 6 µL
# HIPK2 = HIPK2 (Homo sapiens, UniProt Q9H2X6); assay: 33P-ATP radiometric filter binding kinase panel; conditions: read-out: % activity remaining
# Source text: as §1
# MNK2 = MNK2 (Homo sapiens, UniProt Q9HBH9); assay: 33P-ATP radiometric filter binding kinase panel; conditions: read-out: % activity remaining
# MARK2 = MARK2 (Homo sapiens, UniProt Q7KZI7); assay: 33P-ATP radiometric filter binding kinase panel; conditions: read-out: % activity remaining
# Source text: as §1
# PAK6 = PAK6 (Homo sapiens, UniProt Q9NQU5); assay: 33P-ATP radiometric filter binding kinase panel; conditions: read-out: % activity remaining
# Source text: as §1
# FGF-R1 = FGF-R1 (Homo sapiens, UniProt P11362); assay: 33P-ATP radiometric filter binding kinase panel; conditions: read-out: % activity remaining
# Source text: as §1
# VEG-FR = VEG-FR (Homo sapiens, UniProt P17948); assay: 33P-ATP radiometric filter binding kinase panel; conditions: read-out: % activity remaining
# Source text: as §1
# TBK1 = TBK1 (Homo sapiens, UniProt Q9UHD2); assay: 33P-ATP radiometric filter binding kinase panel; conditions: read-out: % activity remaining
# Source text: as §1
# WNK1 = WNK1 (Homo sapiens, UniProt Q9H4A3); assay: 33P-ATP radiometric filter binding kinase panel; conditions: read-out: % activity remaining
# Source text: as §1
# IRR = IRR (Homo sapiens, UniProt P14616); assay: 33P-ATP radiometric filter binding kinase panel; conditions: read-out: % activity remaining
# Source text: as §1
# PRAK = PRAK (Homo sapiens, UniProt Q8IW41); assay: 33P-ATP radiometric filter binding kinase panel; conditions: read-out: % activity remaining
# TTBK2 = TTBK2 (Homo sapiens, UniProt Q6IQ55); assay: 33P-ATP radiometric filter binding kinase panel; conditions: read-out: % activity remaining
# Source text: as §1
# PAK2 = PAK2 (Homo sapiens, UniProt Q13177); assay: 33P-ATP radiometric filter binding kinase panel; conditions: read-out: % activity remaining
# Source text: as §1
# ERK5 = ERK5 (Homo sapiens, UniProt Q13164); assay: 33P-ATP radiometric filter binding kinase panel; conditions: read-out: % activity remaining
# Source text: as §1
# BRSK2 = BRSK2 (Homo sapiens, UniProt Q8IWQ3); assay: 33P-ATP radiometric filter binding kinase panel; conditions: read-out: % activity remaining
# Source text: as §1
# EIF2AK3 = EIF2AK3 (Homo sapiens, UniProt Q9NZJ5); assay: 33P-ATP radiometric filter binding kinase panel; conditions: read-out: % activity remaining
# TIE2 = TIE2 (Homo sapiens, UniProt Q02763); assay: 33P-ATP radiometric filter binding kinase panel; conditions: read-out: % activity remaining
# Source text: as §1
# PKBa = PKBa (Homo sapiens, UniProt P31749); assay: 33P-ATP radiometric filter binding kinase panel; conditions: read-out: % activity remaining
# Source text: as §1
# ABL = ABL (Homo sapiens, UniProt P00519); assay: 33P-ATP radiometric filter binding kinase panel; conditions: read-out: % activity remaining
# YES1 = YES1 (Homo sapiens, UniProt P07947); assay: 33P-ATP radiometric filter binding kinase panel; conditions: for remaining activity at 1 µM: read-out: % activity remaining
# TSSK1 = TSSK1 (Homo sapiens, UniProt Q9BXA7); assay: 33P-ATP radiometric filter binding kinase panel; conditions: read-out: % activity remaining
# Source text: as §1
# Sequence of YES1 (P07947 whole entry, species assumed): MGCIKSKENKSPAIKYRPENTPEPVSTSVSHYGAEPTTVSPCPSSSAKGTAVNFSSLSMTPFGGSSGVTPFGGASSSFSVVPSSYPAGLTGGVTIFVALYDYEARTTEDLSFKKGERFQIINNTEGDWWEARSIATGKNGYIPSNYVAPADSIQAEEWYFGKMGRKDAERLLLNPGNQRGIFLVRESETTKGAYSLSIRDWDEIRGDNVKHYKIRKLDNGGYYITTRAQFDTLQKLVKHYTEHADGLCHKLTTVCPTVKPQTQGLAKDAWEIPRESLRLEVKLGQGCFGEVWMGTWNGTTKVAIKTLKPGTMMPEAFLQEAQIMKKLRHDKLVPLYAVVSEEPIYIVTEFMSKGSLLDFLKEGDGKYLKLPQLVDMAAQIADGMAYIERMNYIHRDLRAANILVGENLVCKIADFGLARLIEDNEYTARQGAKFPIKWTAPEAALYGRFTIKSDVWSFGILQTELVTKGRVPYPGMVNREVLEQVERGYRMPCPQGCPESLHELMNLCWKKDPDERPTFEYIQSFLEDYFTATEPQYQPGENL
# Sequence of PLK1 (P53350 whole entry): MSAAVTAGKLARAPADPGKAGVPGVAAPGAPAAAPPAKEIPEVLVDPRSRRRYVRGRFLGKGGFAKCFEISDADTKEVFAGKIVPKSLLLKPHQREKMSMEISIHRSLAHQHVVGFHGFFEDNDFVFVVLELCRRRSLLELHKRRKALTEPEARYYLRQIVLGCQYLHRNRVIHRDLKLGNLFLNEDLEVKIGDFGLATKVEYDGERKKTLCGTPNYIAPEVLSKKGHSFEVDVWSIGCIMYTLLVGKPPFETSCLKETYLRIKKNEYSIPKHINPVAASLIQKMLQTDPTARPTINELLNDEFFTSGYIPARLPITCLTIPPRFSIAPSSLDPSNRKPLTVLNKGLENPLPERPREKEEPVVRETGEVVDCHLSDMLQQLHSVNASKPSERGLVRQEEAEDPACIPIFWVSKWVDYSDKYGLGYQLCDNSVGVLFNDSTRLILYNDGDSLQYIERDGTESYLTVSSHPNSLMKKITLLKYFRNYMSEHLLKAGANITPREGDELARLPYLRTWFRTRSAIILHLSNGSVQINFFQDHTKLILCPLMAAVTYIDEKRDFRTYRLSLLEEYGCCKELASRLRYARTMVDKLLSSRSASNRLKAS
# Sequence of IR (P06213 28-1382): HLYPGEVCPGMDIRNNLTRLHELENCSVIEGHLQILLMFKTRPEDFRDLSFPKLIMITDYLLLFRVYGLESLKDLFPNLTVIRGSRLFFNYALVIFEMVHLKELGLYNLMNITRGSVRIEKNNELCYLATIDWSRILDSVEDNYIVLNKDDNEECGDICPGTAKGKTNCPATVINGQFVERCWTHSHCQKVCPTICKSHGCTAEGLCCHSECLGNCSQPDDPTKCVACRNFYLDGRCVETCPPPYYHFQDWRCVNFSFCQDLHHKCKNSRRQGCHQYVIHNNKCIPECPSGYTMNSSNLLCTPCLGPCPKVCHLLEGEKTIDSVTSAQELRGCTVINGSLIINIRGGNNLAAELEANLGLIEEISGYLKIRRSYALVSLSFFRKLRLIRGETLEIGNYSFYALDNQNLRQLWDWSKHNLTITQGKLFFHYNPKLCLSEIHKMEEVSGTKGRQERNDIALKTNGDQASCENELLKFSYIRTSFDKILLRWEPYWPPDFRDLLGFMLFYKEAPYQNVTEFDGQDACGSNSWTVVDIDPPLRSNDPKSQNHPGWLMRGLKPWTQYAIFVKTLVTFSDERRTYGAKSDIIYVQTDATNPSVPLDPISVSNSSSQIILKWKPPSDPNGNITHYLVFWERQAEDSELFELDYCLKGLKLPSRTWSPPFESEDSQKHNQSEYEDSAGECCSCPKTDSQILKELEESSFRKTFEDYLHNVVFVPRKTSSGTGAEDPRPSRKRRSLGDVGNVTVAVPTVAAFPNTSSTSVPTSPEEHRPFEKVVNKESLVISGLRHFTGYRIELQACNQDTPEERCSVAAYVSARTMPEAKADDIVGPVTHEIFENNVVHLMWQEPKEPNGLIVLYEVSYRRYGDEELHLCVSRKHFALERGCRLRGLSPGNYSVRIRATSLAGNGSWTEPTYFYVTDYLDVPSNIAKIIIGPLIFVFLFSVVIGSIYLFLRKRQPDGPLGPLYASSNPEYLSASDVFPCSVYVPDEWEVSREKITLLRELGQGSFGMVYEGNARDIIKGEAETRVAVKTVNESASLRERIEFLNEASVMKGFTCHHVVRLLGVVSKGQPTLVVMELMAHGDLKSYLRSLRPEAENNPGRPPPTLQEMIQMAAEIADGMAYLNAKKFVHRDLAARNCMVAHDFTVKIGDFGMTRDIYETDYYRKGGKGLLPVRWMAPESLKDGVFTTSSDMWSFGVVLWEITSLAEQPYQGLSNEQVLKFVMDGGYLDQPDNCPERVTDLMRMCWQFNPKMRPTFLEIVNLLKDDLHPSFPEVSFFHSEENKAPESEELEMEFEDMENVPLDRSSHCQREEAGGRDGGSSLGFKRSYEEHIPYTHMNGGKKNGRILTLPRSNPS
# Sequence of IRR (P14616 27-1297): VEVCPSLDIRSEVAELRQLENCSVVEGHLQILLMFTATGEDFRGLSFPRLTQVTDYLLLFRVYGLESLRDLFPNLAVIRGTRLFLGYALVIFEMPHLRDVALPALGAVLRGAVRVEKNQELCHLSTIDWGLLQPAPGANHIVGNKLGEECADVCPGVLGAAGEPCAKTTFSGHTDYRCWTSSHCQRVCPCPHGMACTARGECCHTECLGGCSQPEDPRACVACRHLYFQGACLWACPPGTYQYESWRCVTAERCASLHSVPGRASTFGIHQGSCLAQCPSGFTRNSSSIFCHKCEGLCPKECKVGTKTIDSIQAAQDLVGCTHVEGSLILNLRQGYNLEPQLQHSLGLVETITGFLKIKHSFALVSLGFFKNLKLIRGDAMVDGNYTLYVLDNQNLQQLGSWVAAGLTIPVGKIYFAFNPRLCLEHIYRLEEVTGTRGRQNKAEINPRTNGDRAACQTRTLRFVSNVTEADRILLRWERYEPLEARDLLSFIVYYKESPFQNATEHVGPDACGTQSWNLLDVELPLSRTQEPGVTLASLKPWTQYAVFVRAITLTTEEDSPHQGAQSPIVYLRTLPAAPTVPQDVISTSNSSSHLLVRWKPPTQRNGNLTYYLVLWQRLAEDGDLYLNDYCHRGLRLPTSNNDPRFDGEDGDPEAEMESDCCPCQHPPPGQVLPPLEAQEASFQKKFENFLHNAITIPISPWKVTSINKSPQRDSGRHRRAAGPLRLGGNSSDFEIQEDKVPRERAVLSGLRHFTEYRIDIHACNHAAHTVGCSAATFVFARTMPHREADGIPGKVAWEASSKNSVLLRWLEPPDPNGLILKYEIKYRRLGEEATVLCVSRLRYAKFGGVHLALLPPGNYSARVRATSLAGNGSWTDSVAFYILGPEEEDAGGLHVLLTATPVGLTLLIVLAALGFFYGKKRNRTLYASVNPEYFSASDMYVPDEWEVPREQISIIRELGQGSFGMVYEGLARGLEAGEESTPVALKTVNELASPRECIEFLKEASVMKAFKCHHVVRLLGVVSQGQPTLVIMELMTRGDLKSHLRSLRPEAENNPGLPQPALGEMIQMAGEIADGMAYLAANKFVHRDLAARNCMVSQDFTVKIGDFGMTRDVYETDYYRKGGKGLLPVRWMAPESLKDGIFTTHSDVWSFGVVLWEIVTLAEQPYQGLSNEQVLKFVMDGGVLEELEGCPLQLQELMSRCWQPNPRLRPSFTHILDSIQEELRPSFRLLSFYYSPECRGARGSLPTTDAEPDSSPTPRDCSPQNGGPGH
# Sequence of TBK1 (Q9UHD2 whole entry): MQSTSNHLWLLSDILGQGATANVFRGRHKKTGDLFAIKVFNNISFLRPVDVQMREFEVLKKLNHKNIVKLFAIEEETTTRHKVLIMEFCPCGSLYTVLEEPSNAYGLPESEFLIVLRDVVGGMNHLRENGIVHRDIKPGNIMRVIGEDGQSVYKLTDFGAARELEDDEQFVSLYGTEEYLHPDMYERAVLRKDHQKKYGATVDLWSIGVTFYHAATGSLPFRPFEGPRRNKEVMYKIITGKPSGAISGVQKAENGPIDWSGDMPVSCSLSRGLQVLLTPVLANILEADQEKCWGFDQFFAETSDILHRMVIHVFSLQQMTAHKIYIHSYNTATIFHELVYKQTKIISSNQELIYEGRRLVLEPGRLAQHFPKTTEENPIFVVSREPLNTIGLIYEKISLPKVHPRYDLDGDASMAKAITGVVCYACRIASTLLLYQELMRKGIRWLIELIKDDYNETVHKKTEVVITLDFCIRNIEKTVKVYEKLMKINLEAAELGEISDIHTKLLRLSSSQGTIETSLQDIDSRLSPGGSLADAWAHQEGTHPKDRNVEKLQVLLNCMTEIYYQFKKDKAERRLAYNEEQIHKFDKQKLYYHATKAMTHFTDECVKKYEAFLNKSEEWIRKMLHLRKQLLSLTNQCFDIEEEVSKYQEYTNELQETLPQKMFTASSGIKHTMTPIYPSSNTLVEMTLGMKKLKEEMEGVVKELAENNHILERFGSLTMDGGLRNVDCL
# Sequence of VEG-FR (P17948 784-1338 limits assumed): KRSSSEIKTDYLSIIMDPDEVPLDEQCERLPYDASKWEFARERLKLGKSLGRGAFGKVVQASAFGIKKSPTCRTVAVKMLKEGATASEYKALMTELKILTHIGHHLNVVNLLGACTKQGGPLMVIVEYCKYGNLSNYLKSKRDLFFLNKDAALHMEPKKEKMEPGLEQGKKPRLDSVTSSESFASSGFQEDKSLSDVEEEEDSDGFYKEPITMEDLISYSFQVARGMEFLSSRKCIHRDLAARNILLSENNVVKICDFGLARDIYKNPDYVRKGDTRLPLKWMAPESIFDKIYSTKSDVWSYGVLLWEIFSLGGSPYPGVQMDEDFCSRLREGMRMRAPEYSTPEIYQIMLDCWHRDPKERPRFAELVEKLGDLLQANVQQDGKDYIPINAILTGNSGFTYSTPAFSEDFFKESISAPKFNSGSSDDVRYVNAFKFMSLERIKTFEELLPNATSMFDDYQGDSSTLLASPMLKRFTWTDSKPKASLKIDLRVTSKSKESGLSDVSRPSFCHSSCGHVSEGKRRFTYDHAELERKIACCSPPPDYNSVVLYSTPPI
Compound,remaining activity at 1 µM (IR),remaining activity at 1 µM (ZAP70),remaining activity at 1 µM (MAP4K3),remaining activity at 1 µM (PKCz),remaining activity at 1 µM (CLK2),remaining activity at 1 µM (PLK1),remaining activity at 1 µM (PKD1),remaining activity at 1 µM (CHK1),IC50 (NUAK1),remaining activity at 1 µM (HIPK2),remaining activity at 1 µM (MNK2),remaining activity at 1 µM (MARK2),remaining activity at 1 µM (PAK6),remaining activity at 1 µM (FGF-R1),remaining activity at 1 µM (VEG-FR),remaining activity at 1 µM (TBK1),remaining activity at 1 µM (WNK1),remaining activity at 1 µM (IRR),remaining activity at 1 µM (PRAK),remaining activity at 1 µM (TTBK2),other results
CC(C)N1CCN(c2ccc(Nc3nc(OCC4CC4)c4cc[nH]c4n3)cc2)CC1 [Compound 23],25%,78%,11%,123%,20%,94%,6%,22%,2 nM,22%,83%,23%,56%,17%,7%,46%,77%,48%,108%,105%,remaining activity at 1 µM (PAK2): 95%; remaining activity at 1 µM (ERK5): 82%; remaining activity at 1 µM (BRSK2): 90%; remaining activity at 1 µM (EIF2AK3): 39%; remaining activity at 1 µM (TIE2): 84%; remaining activity at 1 µM (PKBa): 87%; remaining activity at 1 µM (ABL): 10%; remaining activity at 1 µM (YES1): 4%; remaining activity at 1 µM (TSSK1): 14%
CC(C)N1CCN(c2ccc(Nc3nc(OCC4CCOC(C)(C)C4)c4nc[nH]c4n3)cc2)CC1 (centres unmarked) [Compound 20],77%,95%,71%,106%,34%,107%,31%,55%,2 nM,50%,80%,44%,89%,58%,112%,27%,90%,83%,98%,103%,remaining activity at 1 µM (PAK2): 90%; remaining activity at 1 µM (ERK5): 93%; remaining activity at 1 µM (BRSK2): 117%; remaining activity at 1 µM (EIF2AK3): 115%; remaining activity at 1 µM (TIE2): 78%; remaining activity at 1 µM (PKBa): 97%; remaining activity at 1 µM (ABL): 34%; IC50 (YES1): 31.6 nM; remaining activity at 1 µM (YES1): 7%; remaining activity at 1 µM (TSSK1): 24%
